Reference: US20110224240A1 (Myrexis, Inc., priority 2010, published 2011)

How the values were obtained:
Experiment in all cases: Multidrug resistant cell assay, cytotoxicity
[1] = system: P388; format: cell-based, murine; conditions: Mus musculus; P388; 72 hours; read-out: Various MDR Cell Line Cytotoxicity IC50
[2] = system: P388/ADR (MDR-1); format: cell-based; conditions: 72 hours, read-out: Various MDR Cell Line Cytotoxicity IC50
Protocol: P388/ADR cell lines were obtained from American Type Culture Collection (Manassas, Va.) and maintained in RPMI-1640 media supplemented with 10% FCS, 10 units/ml penicillin and streptomycin, 2 mM Glutamax and 1 mM sodium pyruvate (Invitrogen Corporation, Carlsbad, Calif.). […] Cells were allowed to adhere to the plate overnight and then incubated with the compound at final concentrations ranging from 0.13 nM to 10 uM for 72 hours. Cell viability was then assessed using the ATP-lite reagent (Perkin Elmer, Foster City, Calif.). Plates were read on a Wallac Topcount luminescence reader (Perkin Elmer, Foster City, Calif.) and the results graphed in Prism software (Graphpad Software, Inc., San Diego, Calif.). Non-linear regression with variable slope analysis was performed to obtain IC50 concentration values.

[3] = system: NCI/ADR-Res (MDR-1); conditions: 72 h, read-out: Various MDR Cell Line Cytotoxicity IC50
[4] = system: MCF-7; format: cell-based; conditions: Homo sapiens, MCF7, 72 h, read-out: Various MDR Cell Line Cytotoxicity IC50
[5] = system: MCF-7/MX (BCRP-1); format: cell-based; conditions: MCF7/MX, 72 h, read-out: Various MDR Cell Line Cytotoxicity IC50
[6] = system: MCF-7/VP (MRP-1); conditions: Homo sapiens, MCF7-VP, 72 h, read-out: Various MDR Cell Line Cytotoxicity IC50

| Structure (SMILES) | IC50 [1] | IC50 [2] | IC50 [3] | IC50 [4] | IC50 [5] | IC50 [6] |
| --- | --- | --- | --- | --- | --- | --- |
| CC(=O)O[C@@]12CO[C@@H]1C[C@H](O)[C@@]1(C)C(=O)[C@H](O)C3=C(C)[C@@H](OC(=O)[C@H](O)[C@@H](NC(=O)OC(C)(C)C)c4ccccc4)C[C@@](O)([C@@H](OC(=O)c4ccccc4)[C@H]21)C3(C)C [Docetaxel, docetaxel] | 3.3 nM | 200 nM | 900 nM | 13 nM |  |  |
| COc1cccc2c1C(=O)c1c(O)c3c(c(O)c1C2=O)C[C@@](O)(C(=O)CO)C[C@@H]3O[C@H]1C[C@H](N)[C@@H](O)[C@H](C)O1 [Epirubicin, epirubicin, reference compound] |  |  |  | 160 nM | 400 nM | 2100 nM |
| CC[C@]1(O)C[C@@H]2CN(CCc3c([nH]c4ccccc34)[C@@](C(=O)OC)(c3cc4c(cc3OC)N(C)[C@H]3[C@@](O)(C(=O)OC)[C@H](OC(C)=O)[C@]5(CC)C=CCN6CC[C@]43[C@@H]65)C2)C1 [Vinblastine, vinblastine] | 0.5 nM | 8.3 nM | 100 nM | 1.4 nM |  |  |
